In PMC11943294, “Identification of Key Active Constituents in Eucommia ulmoides Oliv. Leaves Against Parkinson’s Disease and the Alleviative Effects via 4E-BP1 Up-Regulation” (International Journal of Molecular Sciences, 2025):

What was measured:
4E-BP1 [1] = molecular target: T1, 4E-BP1 (Homo sapiens, UniProt Q13541); experiment: SPR (BIAcore T200, CM5 chip, immobilized 4E-BP1, […] Langmuir); format: binding
T1 construct: gene EIF4EBP1; amine-coupled to CM5 chip; PDB 2JGB used for docking only

4E-BP1 [2] = molecular target: T1, 4E-BP1; experiment: as above; conditions: 25 °C; 0-125 μM analyte; unreliable (discussion b43 prints another KD, 3.75 × 10^−5 M, and a negative deviation of the binding curve)

T1 sequence (Q13541 2-118): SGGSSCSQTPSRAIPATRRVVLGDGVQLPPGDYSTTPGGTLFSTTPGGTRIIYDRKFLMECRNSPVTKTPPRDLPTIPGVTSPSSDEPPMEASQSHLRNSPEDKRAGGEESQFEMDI

SMILES	Kd (4E-BP1 [1]) [µM]	KD (4E-BP1 [2]) [µM]
O=C(O)/C=C/c1ccc(O)c(O)c1 [caffeic acid]	12.9	
O=C(/C=C/c1ccc(O)c(O)c1)O[C@H]1[C@H](O)C[C@](O)(C(=O)O)C[C@H]1O [cryptochlorogenic acid]		4.469
O=C(/C=C/c1ccc(O)c(O)c1)O[C@@H]1C[C@](O)(C(=O)O)C[C@@H](O)[C@H]1O [chlorogenic acid]	55.6	
